According to the NIST ThermoML archive (doi:10.1016/j.fluid.2010.02.022):
Numbers after ± are expanded uncertainties.

Conditions: 101 kPa, Liquid, Pendant drop method

Structure (SMILES) | interfacial tension (293 K) | interfacial tension (298 K) | interfacial tension (303 K) | interfacial tension (308 K) | interfacial tension (313 K) | interfacial tension (318 K) | interfacial tension (323 K)
CCCCCCCCn1cc[n+](C)c1.O=S(=O)([N-]S(=O)(=O)C(F)(F)F)C(F)(F)F + CCCCCC | 3.12 ± 0.11 mN/m | 3.07 ± 0.11 mN/m | 3.02 ± 0.11 mN/m | 2.95 ± 0.11 mN/m | 2.88 ± 0.11 mN/m |  | 
CCCCCC[n+]1ccn(C)c1.O=S(=O)([N-]S(=O)(=O)C(F)(F)F)C(F)(F)F + CCCCCC | 5.19 ± 0.14 mN/m | 5.1 ± 0.13 mN/m | 4.99 ± 0.13 mN/m | 4.88 ± 0.13 mN/m | 4.79 ± 0.13 mN/m |  | 
CCCC[n+]1ccn(C)c1.O=S(=O)([N-]S(=O)(=O)C(F)(F)F)C(F)(F)F + CCCCCC | 7.78 ± 0.17 mN/m | 7.64 ± 0.17 mN/m | 7.5 ± 0.17 mN/m | 7.37 ± 0.16 mN/m | 7.24 ± 0.16 mN/m |  | 
CCn1cc[n+](C)c1.O=S(=O)([N-]S(=O)(=O)C(F)(F)F)C(F)(F)F + CCCCCC | 11.36 ± 0.22 mN/m | 11.23 ± 0.22 mN/m | 11.12 ± 0.22 mN/m | 10.98 ± 0.22 mN/m | 10.82 ± 0.21 mN/m |  | 
CCCCCCCCn1cc[n+](C)c1.O=S(=O)([N-]S(=O)(=O)C(F)(F)F)C(F)(F)F + CCCCCCCC | 3.76 ± 0.1 mN/m | 3.69 ± 0.1 mN/m | 3.6 ± 0.1 mN/m | 3.49 ± 0.1 mN/m | 3.38 ± 0.1 mN/m |  | 
CCCCCC[n+]1ccn(C)c1.O=S(=O)([N-]S(=O)(=O)C(F)(F)F)C(F)(F)F + CCCCCCCC | 5.79 ± 0.11 mN/m | 5.66 ± 0.11 mN/m | 5.5 ± 0.11 mN/m | 5.36 ± 0.11 mN/m | 5.24 ± 0.11 mN/m |  | 
CCCC[n+]1ccn(C)c1.O=S(=O)([N-]S(=O)(=O)C(F)(F)F)C(F)(F)F + CCCCCCCC | 8.78 ± 0.11 mN/m | 8.6 ± 0.11 mN/m | 8.43 ± 0.11 mN/m | 8.25 ± 0.11 mN/m | 8.1 ± 0.11 mN/m |  | 
CCn1cc[n+](C)c1.O=S(=O)([N-]S(=O)(=O)C(F)(F)F)C(F)(F)F + CCCCCCCC | 12.23 ± 0.13 mN/m | 12.1 ± 0.13 mN/m | 11.84 ± 0.12 mN/m | 11.7 ± 0.12 mN/m | 11.43 ± 0.12 mN/m |  | 
CCCCCCCCn1cc[n+](C)c1.O=S(=O)([N-]S(=O)(=O)C(F)(F)F)C(F)(F)F + CCCCCCCCCC | 3.98 ± 0.1 mN/m | 3.88 ± 0.1 mN/m | 3.76 ± 0.1 mN/m | 3.63 ± 0.1 mN/m | 3.51 ± 0.1 mN/m |  | 
CCCCCC[n+]1ccn(C)c1.O=S(=O)([N-]S(=O)(=O)C(F)(F)F)C(F)(F)F + CCCCCCCCCC | 6.59 ± 0.11 mN/m | 6.47 ± 0.11 mN/m | 6.36 ± 0.11 mN/m | 6.24 ± 0.11 mN/m | 6.11 ± 0.11 mN/m |  | 
CCCC[n+]1ccn(C)c1.O=S(=O)([N-]S(=O)(=O)C(F)(F)F)C(F)(F)F + CCCCCCCCCC | 9.43 ± 0.12 mN/m | 9.33 ± 0.12 mN/m | 9.21 ± 0.12 mN/m | 9.1 ± 0.12 mN/m | 8.99 ± 0.12 mN/m |  | 
CCn1cc[n+](C)c1.O=S(=O)([N-]S(=O)(=O)C(F)(F)F)C(F)(F)F + CCCCCCCCCC | 12.87 ± 0.14 mN/m | 12.75 ± 0.14 mN/m | 12.64 ± 0.14 mN/m | 12.52 ± 0.14 mN/m | 12.41 ± 0.14 mN/m |  | 
CCCCCCCCCCn1cc[n+](C)c1.O=S(=O)([N-]S(=O)(=O)C(F)(F)F)C(F)(F)F + O | 17.71 ± 0.14 mN/m | 17.41 ± 0.14 mN/m | 17.09 ± 0.14 mN/m | 16.75 ± 0.13 mN/m | 16.41 ± 0.13 mN/m | 16.05 ± 0.13 mN/m | 15.66 ± 0.13 mN/m
CCCCCCCCn1cc[n+](C)c1.O=S(=O)([N-]S(=O)(=O)C(F)(F)F)C(F)(F)F + O | 16.47 ± 0.14 mN/m | 15.79 ± 0.13 mN/m | 15.67 ± 0.13 mN/m | 15.37 ± 0.13 mN/m | 15.06 ± 0.13 mN/m | 14.61 ± 0.13 mN/m | 14.44 ± 0.13 mN/m
CCCCCC[n+]1ccn(C)c1.O=S(=O)([N-]S(=O)(=O)C(F)(F)F)C(F)(F)F + O | 15.39 ± 0.13 mN/m | 14.82 ± 0.13 mN/m | 14.49 ± 0.13 mN/m | 14.17 ± 0.13 mN/m | 14.01 ± 0.12 mN/m | 13.78 ± 0.12 mN/m | 13.45 ± 0.12 mN/m
CCCC[n+]1ccn(C)c1.O=S(=O)([N-]S(=O)(=O)C(F)(F)F)C(F)(F)F + O | 13.69 ± 0.12 mN/m | 13.2 ± 0.12 mN/m | 12.57 ± 0.12 mN/m | 12.31 ± 0.12 mN/m | 11.62 ± 0.12 mN/m | 11.4 ± 0.12 mN/m | 11.07 ± 0.12 mN/m
CCn1cc[n+](C)c1.O=S(=O)([N-]S(=O)(=O)C(F)(F)F)C(F)(F)F + O | 10.04 ± 0.11 mN/m | 9.85 ± 0.11 mN/m | 9.51 ± 0.11 mN/m | 9.29 ± 0.11 mN/m | 9.05 ± 0.11 mN/m | 8.79 ± 0.11 mN/m | 8.61 ± 0.11 mN/m
Cn1cc[n+](C)c1.O=S(=O)([N-]S(=O)(=O)C(F)(F)F)C(F)(F)F [1,3-dimethylimidazolium bis((trifluoromethyl)sulfonyl)amide] + O |  | 8.05 ± 0.11 mN/m | 7.83 ± 0.11 mN/m | 7.49 ± 0.11 mN/m | 7.14 ± 0.11 mN/m | 6.82 ± 0.11 mN/m | 6.52 ± 0.11 mN/m
CCCCn1cc[n+](C)c1.O=C([O-])C(F)(F)F [1-butyl-3-methylimidazolium trifluoroacetate] + CCCCCC | 8.74 ± 0.18 mN/m | 8.58 ± 0.18 mN/m | 8.43 ± 0.18 mN/m | 8.29 ± 0.18 mN/m | 8.16 ± 0.17 mN/m |  | 
CCCCn1cc[n+](C)c1.O=C([O-])C(F)(F)F [1-butyl-3-methylimidazolium trifluoroacetate] + CCCCCCCC | 9.38 ± 0.12 mN/m | 9.29 ± 0.12 mN/m | 9.21 ± 0.12 mN/m | 9.11 ± 0.12 mN/m | 8.98 ± 0.11 mN/m |  | 
CCCCn1cc[n+](C)c1.O=C([O-])C(F)(F)F [1-butyl-3-methylimidazolium trifluoroacetate] + CCCCCCCCCC | 10.52 ± 0.13 mN/m | 10.41 ± 0.13 mN/m | 10.29 ± 0.13 mN/m | 10.16 ± 0.13 mN/m | 10.04 ± 0.13 mN/m |  | 
CCCCn1cc[n+](C)c1.O=S(=O)([O-])C(F)(F)F [1-butyl-3-methylimidazolium trifluoromethanesulfonate] + CCCCCC | 9.07 ± 0.19 mN/m | 8.9 ± 0.19 mN/m | 8.74 ± 0.18 mN/m | 8.58 ± 0.18 mN/m | 8.43 ± 0.18 mN/m |  | 
CCCCn1cc[n+](C)c1.O=S(=O)([O-])C(F)(F)F [1-butyl-3-methylimidazolium trifluoromethanesulfonate] + CCCCCCCC | 9.96 ± 0.12 mN/m | 9.88 ± 0.12 mN/m | 9.79 ± 0.12 mN/m | 9.7 ± 0.12 mN/m | 9.59 ± 0.12 mN/m |  | 
CCCCn1cc[n+](C)c1.O=S(=O)([O-])C(F)(F)F [1-butyl-3-methylimidazolium trifluoromethanesulfonate] + CCCCCCCCCC | 10.79 ± 0.13 mN/m | 10.67 ± 0.13 mN/m | 10.56 ± 0.13 mN/m | 10.44 ± 0.13 mN/m | 10.31 ± 0.13 mN/m |  | 
